Source: US20240059704A1, “Cereblon Ligands and Uses Thereof” (REGENTS OF THE UNIVERSITY OF MICHIGAN, priority 2022, published 2024)
Counter-ions that a name gives are not always drawn.

How the values were obtained:
[1] = target: CRBN/DDB1 (Homo sapiens (Human), UniProt Q96SW2); settings: HTRF, His tagged CRBN+DDB-DLS7+CXU4, Cy5-labeled Thalidomide probe; read-out: CRBN Binding IC50
Procedure: The binding potency was determined using HTRF assay technology (Perkin Elmer). Compounds were serially diluted in DMSO and 0.2 μL volume was transferred to white 384-well plate.

[2] = target: wild-type human CRBN protein (Homo sapiens (Human), UniProt Q96SW2); experiment: Cereblon Binding Assay (Cisbio Cereblon Binding Kit, TR-FRET); settings: GST-tagged wild-type human CRBN, XL665-labelled Thalidomide
Procedure: The binding to cereblon (CRBN) was determined using the Cereblon Binding Kit (Cisbio, #64BDCRBNPEG) following the manufacturer's instruction. Briefly, serially diluted compounds were incubated with GST-tagged wild-type human CRBN protein, XL665-labelled Thalidomide and Europium Cryptate labelled GST antibody at room temperature for about 3 hours. Time Resolved Fluorescence Resonance Energy Transfer (TR-FRET) measurements were acquired on a CALRIOstar plate reader with MARS data analysis software (BMG Labtech), with the following settings: 665/10 nm and 620/10 nm emission, 60 […]. The TR-FRET ratio was taken as the 665/620 nm intensity ratio.

[3] = target: ER (Homo sapiens (Human), UniProt P03372); experiment: In-cell western blot analysis (ICW), relative ER percentage in treated cells; format: cell-based; settings: ER degradation, 16 hours
Procedure: In-cell western blot analysis. Cells are seeded in multi-well plates (e.g., at 40,000 or 10,000 cells/well). Diluted compounds at certain concentration are added (final 0.5% DMSO) and cells are incubated for certain period of time (e.g., 16 hours). Formaldehyde (e.g., PBS:FA=9:1) is added and followed by washing with PBS. The cells are blocked with Licor blocking buffer (Li-Cor). The relative ER percentage in treated cells were obtained by comparing the values of treated wells to those in untreated and DMSO-treated wells as 100%.
In-cell western blot analysis. a. seed cells in black-sided/clear bottom 96- or 384-well plates at 40,000 or 10,000 cells/well, overnight; b. add diluted compounds (final 0.5% DMSO), 16 hours. 16 h later, remove medium, add 100 μL or 25 μL of 3.7-4.0% formaldehyde (PBS:FA=9:1), RT 20 min, no shaking; c. wash with PBS, and permeabilized with 100 μL or 25 μL/well of 1×PBS+0.1% Triton X-100 10 minutes; d. block with 100 μL or 25 μL Licor blocking buffer (Li-Cor), RT 1h, moderate shaking; d. Add 100 μL or 25 μL of anti-ER (cs-8644, 1:500-1,000)+GAPDH (Millipore MAB374, 1:1000) in Block+0.05% Tween 20. RT 2h, gentle shaking. Negative control: cells plus secondary antibodies (no primary antibodies); e. wash×4 with PBS+0.05-0.1% Tween 20, gentel shaking; f. anti-rabbit-680 and anti-mouse-800 (both 1:1000 in LiCor block+0.05% Tween20, RT 1h, gentle shaking, no light. LI-COR: 0.2% to reduce background; g. wash×4 with PBS+0.05% Tween 20, gental shaking; h. add 100 μL or 25 μL of PBS to each well and read on CLX plate reader. The relative ER percentage in treated cells were obtained by comparing the values of treated wells to those in untreated and DMSO-treated wells as 100%.

[4] = system: T47D cell line; experiment: Cell growth inhibition in T47D cell line; format: cell-based; settings: Homo sapiens, μM, class key in nM
Procedure: Cell Growth Assay. The cells were seeded at certain concentration (e.g., at 1500/well) in multi-well plates overnight. Cells are subsequently treated with the compounds. A certain period of time (e.g., 4 days) after the compound treatment, 10% WST-8 reagent was added to the culture medium and incubate under certain condition (e.g., in a CO2 incubator at 37° C. for 2.5 hours). The absorbance is measured on each sample using a microplate reader at certain wavelength (e.g., 450 nm). The relative absorbance is calculated against the vehicle control from three individually repeats.

Sequence of ER (P03372 whole entry): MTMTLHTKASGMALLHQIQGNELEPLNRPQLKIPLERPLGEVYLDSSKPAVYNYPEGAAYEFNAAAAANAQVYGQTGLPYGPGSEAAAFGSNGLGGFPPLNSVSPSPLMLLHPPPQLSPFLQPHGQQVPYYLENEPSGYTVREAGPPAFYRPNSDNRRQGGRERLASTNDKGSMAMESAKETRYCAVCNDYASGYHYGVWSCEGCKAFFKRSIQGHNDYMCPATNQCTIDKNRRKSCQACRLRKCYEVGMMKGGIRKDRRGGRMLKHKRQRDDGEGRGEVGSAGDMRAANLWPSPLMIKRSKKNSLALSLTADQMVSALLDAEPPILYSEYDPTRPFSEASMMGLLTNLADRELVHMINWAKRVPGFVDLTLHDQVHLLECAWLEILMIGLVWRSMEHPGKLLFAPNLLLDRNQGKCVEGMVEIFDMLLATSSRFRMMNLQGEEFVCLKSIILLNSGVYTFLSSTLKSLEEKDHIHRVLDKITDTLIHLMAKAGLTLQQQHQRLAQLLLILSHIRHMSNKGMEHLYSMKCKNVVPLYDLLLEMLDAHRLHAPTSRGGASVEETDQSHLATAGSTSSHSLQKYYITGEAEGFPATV
Sequence of wild-type human CRBN protein (Q96SW2 whole entry): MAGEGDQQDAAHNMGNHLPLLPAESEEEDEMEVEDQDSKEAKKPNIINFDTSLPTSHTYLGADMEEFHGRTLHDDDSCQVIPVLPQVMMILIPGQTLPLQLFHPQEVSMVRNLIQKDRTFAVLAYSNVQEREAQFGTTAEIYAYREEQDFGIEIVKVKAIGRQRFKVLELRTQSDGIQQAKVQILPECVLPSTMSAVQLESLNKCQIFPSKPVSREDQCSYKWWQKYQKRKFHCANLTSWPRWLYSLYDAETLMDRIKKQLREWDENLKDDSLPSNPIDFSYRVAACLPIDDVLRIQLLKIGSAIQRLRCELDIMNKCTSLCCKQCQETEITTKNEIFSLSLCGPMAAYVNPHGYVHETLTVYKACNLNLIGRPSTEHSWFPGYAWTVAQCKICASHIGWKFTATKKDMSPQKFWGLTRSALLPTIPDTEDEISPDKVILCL
Sequence of CRBN/DDB1 (Q96SW2 whole entry): as above
Sequence of CRBN/DDB1 (Q16531 whole entry partner): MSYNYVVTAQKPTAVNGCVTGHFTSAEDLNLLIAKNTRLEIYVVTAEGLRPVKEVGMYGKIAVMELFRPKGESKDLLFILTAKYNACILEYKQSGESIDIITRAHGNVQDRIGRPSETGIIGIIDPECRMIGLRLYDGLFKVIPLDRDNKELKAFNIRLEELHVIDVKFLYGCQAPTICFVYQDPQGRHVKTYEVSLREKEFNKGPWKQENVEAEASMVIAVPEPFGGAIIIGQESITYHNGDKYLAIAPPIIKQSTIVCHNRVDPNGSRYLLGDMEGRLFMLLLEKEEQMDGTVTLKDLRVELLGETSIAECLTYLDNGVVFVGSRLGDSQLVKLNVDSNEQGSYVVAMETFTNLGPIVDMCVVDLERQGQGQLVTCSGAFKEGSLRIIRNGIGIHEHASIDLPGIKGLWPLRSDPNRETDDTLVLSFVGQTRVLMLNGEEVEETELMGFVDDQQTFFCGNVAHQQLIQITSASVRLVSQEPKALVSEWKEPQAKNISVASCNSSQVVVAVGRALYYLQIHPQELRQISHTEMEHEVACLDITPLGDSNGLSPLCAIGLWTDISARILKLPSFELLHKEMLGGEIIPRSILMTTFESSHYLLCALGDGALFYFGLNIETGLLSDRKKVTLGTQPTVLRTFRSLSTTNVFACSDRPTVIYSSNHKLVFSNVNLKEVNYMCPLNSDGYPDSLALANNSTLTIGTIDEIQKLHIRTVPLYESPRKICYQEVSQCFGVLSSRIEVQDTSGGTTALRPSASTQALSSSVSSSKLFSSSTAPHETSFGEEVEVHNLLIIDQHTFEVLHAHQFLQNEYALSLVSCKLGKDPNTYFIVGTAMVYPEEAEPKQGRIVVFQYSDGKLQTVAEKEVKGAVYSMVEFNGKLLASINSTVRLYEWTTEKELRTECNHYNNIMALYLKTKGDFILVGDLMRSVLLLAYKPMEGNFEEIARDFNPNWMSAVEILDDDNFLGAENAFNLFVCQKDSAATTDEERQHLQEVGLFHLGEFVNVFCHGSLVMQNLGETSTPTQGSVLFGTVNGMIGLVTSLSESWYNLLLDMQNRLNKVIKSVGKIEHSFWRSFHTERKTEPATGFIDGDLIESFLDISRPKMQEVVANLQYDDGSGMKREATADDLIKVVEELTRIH

SMILES | IC50 [2] | DC50 [3] | IC50 [4] | IC50 [1]
O=C1CCC(N2Cc3c(ccc4c3OC3(C=C4)CCNCC3)C2=O)C(=O)N1 (stereo not drawn) [Compound A1, 3-(7′-oxo-7′,9′-dihydro-8′H-spiro[piperidine-4,2′-pyrano[2,3-e]isoindol]-8′-yl)piperidine-2,6-dione] |  |  |  | 1100 nM
O=C1CCC(N2Cc3c(ccc4c3OC3(CCNCC3)CC4)C2=O)C(=O)N1 (stereo not drawn) [Compound A2, 3-(7′-oxo-3′,4′,7′,9′-tetrahydro-8′H-spiro[piperidine-4,2′-pyrano[2,3-e]isoindol]-8′-yl)piperidine-2,6-dione] |  |  |  | 620 nM
O=C1CCC(N2Cc3c(ccc4c3OC3(C=C4)CNC3)C2=O)C(=O)N1 (stereo not drawn) [Compound A3, 3-(7′-oxo-7′,9′-dihydro-8′H-spiro[azetidine-3,2′-pyrano[2,3-e]isoindol]-8′-yl)piperidine-2,6-dione hydrochloride] |  |  |  | 1300 nM
O=C1CCC(N2Cc3c(ccc4c3OC3(CC4)CNC3)C2=O)C(=O)N1 (stereo not drawn) [Compound A4, 3-(7′-oxo-3′,4′,7′,9′-tetrahydro-8′H-spiro[azetidine-3,2′-pyrano[2,3-e]isoindol]-8′-yl)piperidine-2,6-dione hydrochloride] |  |  |  | 5200 nM
O=C1CC[C@H](N2Cc3c(ccc4c3OCC3(CCNCC3)O4)C2=O)C(=O)N1 [Compound B1, (S)-3-(7′-oxo-7′,9′-dihydro-2′H,8′H-spiro[piperidine-4,3′-[1,4]dioxino[2,3-e]isoindol]-8′-yl)piperidine-2,6-dione] | 330 nM |  |  | 
O=C1CCC(N2Cc3c(ccc4c3OCC3(CNC3)O4)C2=O)C(=O)N1 (stereo not drawn) [Compound B2, 3-(7′-oxo-7′,9′-dihydro-2′H,8′H-spiro[azetidine-3,3′-[1,4]dioxino[2,3-e]isoindol]-8′-yl)piperidine-2,6-dione] | 259 nM |  |  | 
O=C1CC[C@H](N2Cc3cc4c(c(F)c3C2=O)OCC2(CCNCC2)O4)C(=O)N1 [Compound B3, (S)-3-(5′-fluoro-6′-oxo-6′,8′-dihydro-3′H,7′H-spiro[piperidine-4,2′-[1,4]dioxino[2,3-f]isoindol]-7′-yl)piperidine-2,6-dione] | 1730 nM |  |  | 
O=C1CC[C@H](N2Cc3cc4c(cc3C2=O)OCC2(CNC2)O4)C(=O)N1 [Compound B4, (S)-3-(6′-oxo-6′,8′-dihydro-3′H,7′H-spiro[azetidine-3,2′-[1,4]dioxino[2,3-f]isoindol]-7′-yl)piperidine-2,6-dione] | 4330 nM |  |  | 
O=C1CCC(N2C(=O)c3cc4c(cc3C2=O)OC2(CNC2)CO4)C(=O)N1 (stereo not drawn) [Compound B5, 7′-(2,6-dioxopiperidin-3-yl)-7′-hydro-3′H,6′H-spiro[azetidine-3,2′-[1,4]dioxino[2,3-f]isoindole]-6′,8′-dione] | 4630 nM |  |  | 
O=C1CCC(N2Cc3c(ccc4c3OCC3(CN(CC5CCN(c6ccc([C@@H]7c8ccc(O)cc8CC[C@@H]7c7ccccc7)cc6)CC5)C3)O4)C2=O)C(=O)N1 (stereo partly drawn) [THP-B367] |  | > 100 nM | 0.001 to 0.01 µM | 
O=C1CCC(N2Cc3c(ccc4c3OCC3(CN(CC5CC6(CCN(c7ccc([C@@H]8c9ccc(O)cc9CC[C@@H]8c8ccccc8)cc7)CC6)C5)C3)O4)C2=O)C(=O)N1 (stereo partly drawn) [THP-B368] |  | > 100 nM | 0.001 to 0.01 µM | 
O=C1CC[C@H](N2Cc3c(ccc4c3OCC3(CCN(CC5CCN(c6ccc([C@@H]7c8ccc(O)cc8CC[C@@H]7c7ccccc7)cc6)CC5)CC3)O4)C2=O)C(=O)N1 [THP-B369] |  | 10 to 100 nM | < 0.001 µM | 
O=C1CC[C@H](N2Cc3c(ccc4c3OCC3(CCN(CC5CC6(CCN(c7ccc([C@@H]8c9ccc(O)cc9CC[C@@H]8c8ccccc8)cc7)CC6)C5)CC3)O4)C2=O)C(=O)N1 [THP-B371] |  | < 10 nM | < 0.001 µM | 
O=C1CC[C@H](N2Cc3c(ccc4c3OCC3(CCN(CC5CCC6(CCN(c7ccc([C@@H]8c9ccc(O)cc9CC[C@@H]8c8ccccc8)cc7)CC6)O5)CC3)O4)C2=O)C(=O)N1 (stereo partly drawn) [THP-B372] |  | 10 to 100 nM | 0.001 to 0.01 µM | 
O=C1CC[C@H](N2Cc3c(ccc4c3OCC3(CCN(CC5COC6(CCN(c7ccc([C@@H]8c9ccc(O)cc9CC[C@@H]8c8ccccc8)cc7)CC6)C5)CC3)O4)C2=O)C(=O)N1 (stereo partly drawn) [THP-B373] |  | < 10 nM | < 0.001 µM | 

Second part, led by results:

IC50 [2] | DC50 [3] | IC50 [4] | SMILES | IC50 [1]
 | < 10 nM | < 0.001 µM | O=C1CC[C@H](N2Cc3c(ccc4c3OCC3(CCN(CC5COC6(CCN(c7ccc([C@@H]8c9ccc(O)cc9CC[C@@H]8c8ccccc8)cc7)CC6)OC5)CC3)O4)C2=O)C(=O)N1 [THP-B374] | 
 | 10 to 100 nM | < 0.001 µM | O=C1CCC(N2Cc3c(ccc4c3OCC3(CN(CC5CCC6(CC5)CN(c5ccc([C@@H]7c8ccc(O)cc8CC[C@@H]7c7ccccc7)cc5)C6)C3)O4)C2=O)C(=O)N1 (stereo partly drawn) [THP-B376] | 
 | 10 to 100 nM | < 0.001 µM | O=C1CCC(N2Cc3c(ccc4c3OCC3(CN(CC5COC6(CCN(c7ccc([C@@H]8c9ccc(O)cc9CC[C@@H]8c8ccccc8)cc7)CC6)OC5)C3)O4)C2=O)C(=O)N1 (stereo partly drawn) [THP-B377] | 
 | > 100 nM | > 0.01 µM | O=C1CC[C@H](N2Cc3cc4c(c(F)c3C2=O)OCC2(CCN(CC3CCN(c5ccc([C@@H]6c7ccc(O)cc7CC[C@@H]6c6ccccc6)cc5)CC3)CC2)O4)C(=O)N1 [THP-B383, (S)-3-(5′-fluoro-1-((1-(4-((1R,2S)-6-hydroxy-2-phenyl-1,2,3,4-tetrahydronaphthalen-1-yl)phenyl)piperidin-4-yl)methyl)-6′-oxo-6′,8′-dihydro-3′H,7′H-spiro[piperidine-4,2′-[1,4]dioxino[2,3-f]isoindol]-7′-yl)piperidine-2,6-dione] | 
 | > 100 nM | 0.001 to 0.01 µM | O=C1CC[C@H](N2Cc3cc4c(c(F)c3C2=O)OCC2(CCN(CC3CC5(CCN(c6ccc([C@@H]7c8ccc(O)cc8CC[C@@H]7c7ccccc7)cc6)CC5)C3)CC2)O4)C(=O)N1 [THP-B384] | 
 | > 100 nM | 0.001 to 0.01 µM | O=C1CCC(N2C(=O)c3cc4c(cc3C2=O)OC2(CO4)CN(CC3CC4(CCN(c5ccc([C@@H]6c7ccc(O)cc7CC[C@@H]6c6ccccc6)cc5)CC4)C3)C2)C(=O)N1 (stereo partly drawn) [THP-B385] | 
 | > 100 nM | 0.001 to 0.01 µM | O=C1CCC(N2Cc3c(ccc4c3OCC3(CN(CC5CCC6(CCN(c7ccc([C@@H]8c9ccc(O)cc9CC[C@@H]8c8ccccc8)cc7)CC6)OC5)C3)O4)C2=O)C(=O)N1 (stereo partly drawn) [THP-B386] | 
 |  | 0.001 to 0.01 µM | O=C1CC[C@H](N2Cc3cc4c(cc3C2=O)OCC2(CN(CC3CC5(CCN(c6ccc([C@@H]7c8ccc(O)cc8CC[C@@H]7c7ccccc7)cc6)CC5)C3)C2)O4)C(=O)N1 [THP-B394, (S)-3-(1-((7-(4-((1R,2S)-6-hydroxy-2-phenyl-1,2,3,4-tetrahydronaphthalen-1-yl)phenyl)-7-azaspiro[3.5]nonan-2-yl)methyl)-6′-oxo-6′,8′-dihydro-3′H,7′H-spiro[azetidine-3,2′-[1,4]dioxino[2,3-f]isoindol]-7′-yl)piperidine-2,6-dione] | 
